Laboratory results from patent US4444690A, “Technetium chelates” (priority 1982, dated 1984).
“And” between values parts separate entries of the source, which are not always exact repeats. Equal values may be shown once. Read-outs that look alike come from different tables or passages of the source.

Key:
[1] = Blood disappearance rates in rats (FIG. 3); assay type: in vivo, male Sprague-Dawley rats
Excerpt: These determinations were made in male Sprague-Dawley rats.

plasma proteins = assay: Plasma protein binding, ultrafiltration; assay type: in vitro ADME
Method: (§1) Studies of protein binding were carried out in plasma using an ultrafiltration method described at J.Nucl.Med. 22, 258-263, 1981.

renal tubular transport [2] = details: mouse, in vivo
Method: (§3) A dose of 50 mg/kg of probenicid was given 10 minutes prior to injection of radiochemicals. OIH was injected simultaneously.
(§4) *Values are mean and S.E.M. percent injected dose at 10 min. post

[3] = for renal excretion (urine appearance) in words: rabbits, FIG. 4
Method: (§2) Organ biodistribution and acute toxicity studies were carried out in mice, blood disappearance and bile appearance rates were determined by sampling of bood or bile in rats, and renal excretion rates of the two Tc-2,3-bis(mercaptoacetamido)propanoic acid components, Tc-DTPA, and OIH were determined in rabbits because of greater ease of urine sampling. The HPLC-purified Tc-2,3-bis(mercaptoacetamido)propanoate components were used directly except for dilution as necessary. In general HPLC collected volumes were 1 to 1.5 ml and were not diluted for rabbit studies, were diluted 2- to 10-fold for rat studies and were diluted about 20-fold for mouse studies. In most cases determinations were made with simultaneous administration of OIH.
The rate of renal excretion was measured in New Zealand albino male rabbits. They were anesthetized with ketamine and xylazine and placed on a gamma camera provided with digital storage. After injection of 0.5 to 1 mCi of the Tc-99m complex containing 0.5μCi of OIH, images were collected on tape for 45 minutes. At 35 minutes after injection, urine was expelled from the bladder and the percentage of injected dose contained in the expelled urine was determined. Accumulation of bladder radioactivity was monitored by placing a region of interest over the bladder. The drop in the radioactivity in the bladder after expelling the urine sample (50-80% of the bladder radioactivity) allowed calibration of the bladder time-activity curve in terms of percent injected dose.

[4] = Organ biodistribution time course of Tc-CO2-DADS components in mice (Table 1); assay type: in vivo, Hal Cr female albino mice; details: for Blood / Intestines / Stomach / Urine / Kidneys / Liver: mean of 6; for OIH Urine: mouse, in vivo
Method: The time course of organ distribution was determined in groups of six Hal Cr female albino mice. They were injected with 0.10 ml (0.5 uCi) of the preparation. For comparison purposes, 0.2 uCi OIH was added to each injection. The mice were placed in metabolic cages for the collection of excreted urine. At indicated intervals after injection, the urethra was ligated and the mice killed with chloroform vapor. The organs were removed and counted in a dual channel counter with correction for I-131 crossover into the Tc-99m channel.

[5] = rats, 90 minutes; for biliary excretion of radioactivity in the absence of renal function: renal pedicles ligated
Method: as §2
These determinations were made in male Sprague-Dawley rats. For blood studies the animals were anesthetized with sodium pentobarbital, a line was placed in a femoral vein for tracer injections and hydration, and another was placed in a carotid artery for blood sampling. About 20μCi (0.25 ml) each of OIH and Tc-99m complex under study were injected and 0.1 to 0.2 ml samples of blood were taken at 1, 2, 3, 4, 5, 6, 9, 12, 15, 20, 25, 30, 45, 60, 75, and 90 minutes after injection. Biliary excretion in the absence of renal function was determined by cannulating the common bile duct, ligating the renal pedicles, and collecting bile in 4-minute fractions for 90 minutes.

renal tubular transport [6] = assay: Tubular transport inhibition study with probenicid (Table 2); details: mice; for Blood / Intestines / Kidneys / Liver / Urine (renal excretion): 10 min post injection; for Urine (renal excretion): 10 min
Method: as §3, §4

[7] = Plasma protein binding, ultrafiltration; assay type: in vitro ADME; details: plasma, duplicate determinations, read-out: binding to plasma proteins (converted)
Method: as §1

[8] = cited from earlier work
[9] = animals with normal renal function
[10] = mice, 5 min post injection, listed as Tc--CO2 --DADS--A
[11] = mice, 5 min post injection, listed as component A
[12] = mice, 10 min post injection, listed as Tc--CO2 --DADS--A
[13] = mice, 30 min post injection, listed as Tc--CO2 --DADS--A
[14] = mice, 120 min post injection, listed as Tc--CO2 --DADS--A
[15] = probenicid treated (50 mg/kg, 10 min prior)

In the case of `O=C(O)C1C[N]2C(=O)C[S][99Tc-]23(=[O])[S]CC(=O)[N]13` (single isomer, unassigned) [Tc-2,3-bis(mercaptoacetamido)propanoate-A] [Tc-99m-2,3-bis(mercaptoacetamido)propanoate], the “time at which radioactivity remaining in the blood was 2%” value ([1]; rats) is reported as 36 min, the “time at which radioactivity remaining in the blood was 5%” value ([1]; rats) is reported as 16.5 min and the “blood disappearance in words” value ([1]; rats, FIG. 3) is reported as “higher initial value resulted in comparable curve slopes”. The “blood disappearance in words” value ([1]; rats, FIG. 3, listed as component A) was “comparable to or slightly greater than that of OIH”, the “protein binding in words” value (plasma proteins) was “high degree of protein binding” and the “binding to plasma proteins” value (plasma proteins; 10 min) was 93%. The “binding to plasma proteins” value (plasma proteins; 0.5 h) was 94%, the “biliary excretion with probenicid, in words” value (renal tubular transport [2]) was “not increased significantly” and the “liver radioactivity with probenicid, in words” value (renal tubular transport [2]) was “Biliary excretion was not increased significantly for component A, but liver radioactivity was”. It also gave a Blood (renal tubular transport [2]; 10 min) of 3.37 percent injected dose, an Intestines (renal tubular transport [2]; 10 min) of 0.77 percent injected dose and a Kidneys (renal tubular transport [2]; 10 min) of 2.53 percent injected dose. The Liver (renal tubular transport [2]; 10 min) was 4.21 percent injected dose, the “rate of renal excretion in words” value [3, 9] was “equivalent to OIH” and the “specificity for renal excretion” value [3, 9] was “nearly complete”. For the same molecule, the “renal excretion (urine appearance) in words” value [3] was “slightly greater extent than OIH although differences were only significant at 35 minutes (p<0.05)”, the “renal excretion (urine appearance) in words” value ([3]; listed as Component A) was “slightly faster than OIH from 10 minutes onward” and the Blood ([4]; mice, 5 min post injection) was 8.19 percent injected dose. It also gave an Intestines ([4]; mice, 5 min post injection) of 1.61 percent injected dose, a Stomach ([4]; mice, 5 min post injection) of 0.24 percent injected dose and a Urine ([4]; mice, 5 min post injection, listed as Tc-2,3-bis(mercaptoacetmido)propanoate-A, 5 min) of 45 percent injected dose. It also gave a Kidneys [4, 10] of 5.61 percent injected dose, a Liver [4, 10] of 7.81 percent injected dose and a Urine ([4]; mice, 5 min post injection, listed as Tc--CO2 --DADS--A, 5 min) of 45.52 percent injected dose. For the same molecule, the Kidneys [4, 11] was 5.6 percent injected dose, the Liver [4, 11] was “about 8 percent injected dose” and the Blood [4, 12] was 3.10 percent injected dose. It also gave an Intestines [4, 12] of 0.82 percent injected dose, a Kidneys [4, 12] of 2.23 percent injected dose and a Liver [4, 12] of 4.26 percent injected dose. It also gave a Stomach [4, 12] of 0.11 percent injected dose, a Urine ([4]; mice, 10 min post injection, listed as Tc--CO2 --DADS--A, 10 min) of 67.97 percent injected dose and a Blood ([4]; mice, 15 min post injection) of 1.95 percent injected dose. The Intestines ([4]; mice, 15 min post injection) was 0.86 percent injected dose, the Kidneys ([4]; mice, 15 min post injection) was 1.30 percent injected dose and the Liver ([4]; mice, 15 min post injection) was 3.79 percent injected dose. It also gave a Stomach ([4]; mice, 15 min post injection) of 0.09 percent injected dose, a Urine ([4]; mice, 15 min post injection) of 75.08 percent injected dose and an Intestines ([4]; mice, 30 min post injection) of 1.05 percent injected dose. It also gave a Liver ([4]; mice, 30 min post injection) of 1.34 percent injected dose, a Stomach ([4]; mice, 30 min post injection) of 0.07 percent injected dose and a Urine ([4]; mice, 30 min post injection) of 80.82 percent injected dose. The Kidneys ([4]; mice, 30 min post injection, listed as Tc-2,3-bis(mercaptoacetmido)propanoate-A) was “less than 1 percent injected dose”, the Blood [4, 13] was 0.59 percent injected dose and the Kidneys [4, 13] was 0.51 percent injected dose. The Blood ([4]; mice, 30 min post injection, listed as component A) was 0.6 percent injected dose, the Blood [4, 14] was 0.21 percent injected dose and the Intestines [4, 14] was 1.46 percent injected dose. For the same molecule, the Kidneys [4, 14] was 0.25 percent injected dose, the Liver [4, 14] was 0.78 percent injected dose and the Stomach [4, 14] was 0.04 percent injected dose. The Urine ([4]; mice, 120 min post injection, listed as Tc--CO2 --DADS--A, 120 min) was 86.57 percent injected dose, the Liver ([4]; mice, 120 min post injection, listed as component A) was “less than 1 percent injected dose” and the “radioactivity seen in the intestine” value ([4]; mice, at any time interval) was no more than 1.6%. For the same molecule, the “renal excretion / clearance in words” value ([4]; mice, comparison with OIH or component A) was “slightly higher than or comparable to OIH in renal excretion”, the radioactivity in muscle ([5]; absence of renal function) was 22% and the “radioactivity in the blood” value ([5]; absence of renal function) was 21%. The “radioactivity in the kidneys” value ([5]; absence of renal function) was 1%, the “radioactivity in the liver” value ([5]; absence of renal function) was 4% and the “radioactivity in the spleen” value ([5]; absence of renal function) was 0.1%. For the same molecule, the “radioactivity in the stomach” value ([5]; absence of renal function) was 0.3%, the “biliary excretion of radioactivity in the absence of renal function” value [5] was “less than 3%” and the “biliary excretion of radioactivity in the absence of renal function” value ([5]; listed as Tc-99m-2,3-bis(mercaptoacetamido)propanoate-A) was 3.1%.

In the case of `O=C(O)CNC(=O)c1ccccc1[131I]` [OIH, I-131 o-iodohippurate], the “blood disappearance in words” value ([1]; rat, in vivo) is reported as “most rapid disappearance through 75 minutes”, the Blood (renal tubular transport [6]; control) is reported as 4.58 percent injected dose and the Intestines (renal tubular transport [6]; control) is reported as 1.12 percent injected dose. The Kidneys (renal tubular transport [6]; control) was 2.83 percent injected dose, the Liver (renal tubular transport [6]; control) was 1.31 percent injected dose and the “Urine (renal excretion)” value (renal tubular transport [6]; control) was 64.94 percent injected dose and 65 percent injected dose. The “decrease of renal excretion by probenicid treatment” value (renal tubular transport [6]; 10 minutes) was 20%, the Blood (renal tubular transport [6]; [15]) was 7.49 percent injected dose and the Intestines (renal tubular transport [6]; [15]) was 2.18 percent injected dose. For the same molecule, the Kidneys (renal tubular transport [6]; [15]) was 3.79 percent injected dose, the Liver (renal tubular transport [6]; [15]) was 2.68 percent injected dose and the “Urine (renal excretion)” value (renal tubular transport [6]; [15]) was 52.62 percent injected dose and 52 percent injected dose. For the same molecule, the fraction unbound at 10 min ([7]; 10 minutes) was 0.36, the fraction unbound at 0.5 h ([7]; 30 minutes) was 0.44 and the extraction efficiency ([8]; renal) was “about 67%”. The “OIH Urine” value ([4]; 5 min) was 42.02 percent injected dose, the “OIH Urine” value ([4]; 10 min) was 64.94 percent injected dose and the “OIH Urine” value ([4]; 0.25 h) was 78.24 percent injected dose. For the same molecule, the “OIH Urine” value ([4]; 2 h) was 82.43 percent injected dose.

In the case of “Tc-99m diethylenetriaminepentaacetic acid [Tc-99m DTPA]”, the extraction efficiency ([8]; in vivo) is listed as no more than 20%.
